# Reference: paper PMC12744750 (Plant Communications, 2025)
# Entries after “also recorded” stand apart in the source; their conditions may differ.
# T1: full-length ETR1, recombinant, purified and fluorescently labeled (Arabidopsis, UniProt P49333 1-738, fluorescent label (dye and site not stated))
# T1 chain: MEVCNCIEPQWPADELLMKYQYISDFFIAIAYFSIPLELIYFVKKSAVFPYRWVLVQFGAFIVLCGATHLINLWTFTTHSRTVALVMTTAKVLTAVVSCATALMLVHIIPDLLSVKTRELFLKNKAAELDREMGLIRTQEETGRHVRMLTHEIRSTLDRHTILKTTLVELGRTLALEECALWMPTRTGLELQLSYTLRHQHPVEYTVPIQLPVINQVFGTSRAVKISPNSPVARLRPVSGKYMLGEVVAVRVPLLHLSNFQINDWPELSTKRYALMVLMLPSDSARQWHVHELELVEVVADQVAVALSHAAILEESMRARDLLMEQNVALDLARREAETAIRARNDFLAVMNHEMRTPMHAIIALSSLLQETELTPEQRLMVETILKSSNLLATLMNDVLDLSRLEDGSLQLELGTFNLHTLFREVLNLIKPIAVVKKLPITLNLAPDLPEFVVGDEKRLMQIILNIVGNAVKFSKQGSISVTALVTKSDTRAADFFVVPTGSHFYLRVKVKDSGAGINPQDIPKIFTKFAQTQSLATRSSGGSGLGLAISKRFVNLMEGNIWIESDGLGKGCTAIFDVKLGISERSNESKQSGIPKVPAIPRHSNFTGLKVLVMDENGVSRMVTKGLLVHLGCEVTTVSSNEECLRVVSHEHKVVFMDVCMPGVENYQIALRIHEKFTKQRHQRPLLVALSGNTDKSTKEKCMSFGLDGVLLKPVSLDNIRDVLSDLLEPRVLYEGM
# Experiments:
# [1] = test system: Arabidopsis pls mutant seedlings (primary root length); assay: Hydroponic peptide feeding: rescue of short primary root of pls mutant; format: in vivo, Arabidopsis thaliana; details: for rescue of root growth of pls seedlings: 50 nM peptide, n = 25 (Figure 2C)
# Protocol: (A) Amino acid sequence of the PLS peptide from Arabidopsis thaliana with the Camelina sativa PLS sequence and the synthetic truncations N1, N2, C1, and C2 indicated by horizontal lines. Two cysteine residues are highlighted in bold. (B) Effect of the synthetic Arabidopsis PLS full-length peptide, A. thaliana PLS(FL), and the Camelina PLS peptide (C. sativa PLS) on Arabidopsis primary root length. Wild-type (C24; blue bars) and pls mutant seedlings (orange bars) were grown hydroponically in the presence (100 nM) or absence of peptide for 10 days. ∗∗∗P < 0.05, t-test between C24 and pls. Error bars show ±1 standard error of the mean, n = 20. (C) Effect of synthetic full-length and truncated peptides on primary root length of wild-type (blue bars) and pls mutant (orange bars) Arabidopsis. Seedlings were grown hydroponically in the presence of 50 nM peptide for 10 days. C1, C-terminal 14 amino acids; C2, C-terminal 24 amino acids; N1, N-terminal 22 amino acids; N2, N-terminal 9 amino acids; full-length PLS, 36 amino acids. Error bars show ±1 standard error of the mean, n = 25. ∗∗∗P < 0.05, t-test between C24 and pls.
# proPLS::PLS:GFP comprises a 1.5-kb PLS promoter sequence ([Casson et al., 2002]) fused to the PLS open reading frame in pMDC107 (obtained from Prof. P.J. Hussey, Durham University) as a C-terminal GFP translational fusion. The PLS ORF with its 1.5-kb promoter was amplified from the TOPO 2.1 vector, which contained the PLS gene sequence with promoter ([Casson et al., 2002]); the primers used for cloning are listed in supplemental Table 9. pls mutant plants were transformed using the method of [Clough and Bent (1998)]. proPLS::GFP plants were generated using the 1.5-kb PLS promoter ([Casson et al., 2002]) fused to GFP in a wild-type background. p35S::GFP seedlings were obtained from Dr. Piers Hemsley, Durham University. Seedlings of Arabidopsis thaliana ecotype C24 or Col-0, pls mutants, and transgenic PLS overexpressers, all from lab stocks, were grown on solid sterile half-strength (2.2 g/l) Murashige and Skoog medium (Sigma-Aldrich) containing 10 g/l sucrose (half-strength [½] MS10 medium) solidified with 2.5 g/l Phytagel (Sigma-Aldrich) in 90-mm Petri dishes (Sarstedt, Leicester, UK) at 21°C under a 16-h photoperiod as described previously ([Casson et al., 2002]; [Chilley et al., 2006]). N. benthamiana plants (lab stocks) were grown in a controlled environment (21°C, 16-h photoperiod) for transient expression studies in leaf tissue. For hydroponic feeding studies, Arabidopsis seedlings were cultured in liquid ½ MS10 medium (1 ml/well) in sterile 24-well plates (Sarstedt), essentially as described in [Matsuzaki et al. (2010]). For hormone and peptide assays, one seedling was grown in each well at 21°C under a 16-h photoperiod. For peptide feeding experiments, purified freeze-dried peptide was dissolved in DMSO to create a 500-μM stock solution. The peptide stock solution was added to liquid ½ MS10 medium containing 0.1% DMSO to obtain a final peptide concentration of 50 or 100 nM (or 10, 25, 50, and 100 nM for dose-dependent assays). For copper treatments, 1 mM CuSO4 solution was filter sterilized and added to autoclaved liquid ½ MS10 medium to obtain final CuSO4 concentrations of 0, 5, 10, 15, 20, 25, 30, 35, 40, 45, and 50 μM. Seedlings were scanned to create a digital image, and root lengths of the seedlings were measured using ImageJ. Statistical analysis was performed using Real Statistics Resource Pack software (release 3.8, www.real-statistics.com) in Excel (Microsoft) using data from at least 10 independently grown seedlings for root growth analysis; specific numbers are defined for each experiment.
# [2] = test system: pls mutant; details: cited from earlier work
# From the text: Transgenic complementation of the mutant by the PLS gene (AT4G39403), which encodes a 36-amino-acid peptide, suppresses the mutant phenotype ([ ... || The pls mutant is rescued by the supply of silver ions ([Casson et al., 2002]), and silver is likely delivered to the ethylene receptor via RAN1 ([Binder et al., 2010]); these findings argue against a mechanism in which PLS acts downstream of RAN1 to metalate ETR1 in the ER lumen. It is also unlikely that PLS removes Cu(I) from the receptor, as this would inactivate the receptor and lead to enhanced ethylene signaling in the presence of PLS, which is the opposite of what would be expected from the pls mutant phenotype. We therefore favor a model (Figure 6) in which PLS binds ETR1 as part of th ...
# [3] = Anaerobic Cu(I) titration in competition with bicinchoninic acid (BCA); format: binding; details: synthetic peptide; mutant 40 μM, BCA 93.3 μM, mean ± SD, n = 3 (supplemental Figure 10)
# Protocol: Freeze-dried synthetic PLS peptide (Cambridge Research Biochemicals) was dissolved in DMSO. An aliquot was added to aqueous buffer (10 mM HEPES [pH 7], 20 mM NaCl, 80 mM KCl), and absorbance was recorded at 280 nm. PLS concentration was estimated from the absorbance and the ProtParam estimated extinction coefficient of 2980 M^−1 cm^−1. Concurrently, a sample was submitted for quantitative amino acid analysis (Abingdon Health Laboratory Services). From this analysis, a conversion factor of 2.27 was generated, which was applied to the concentrations determined by A280 nm.
# A fusion of PLS to MBP was created using the NEBExpress MBP Fusion and Purification System. Two complementary oligonucleotide primers encoding PLS (optimized for expression in E. coli) were annealed and inserted into the pMal-c5x plasmid at the XmnI and SalI insertion sites. The three mutants MBP:PLS(C6S), MBP:PLS(C17S), and MBP:PLS(C6S/C17S) were created by site-directed mutagenesis (QuikChange II, Agilent). E. coli NEB Express containing the pMal plasmid with the correct MBP:PLS mutant was used to overexpress each protein. Harvested cells were resuspended in 20 mM Tris–HCl (pH 7.4), 200 mM NaCl, and 1 mM EDTA, then frozen at −20°C overnight. Cells were defrosted in cold H2O, sonicated, purified by ammonium sulfate precipitation (where MBP-PLS precipitates >60% saturation), separated on an MBP-Trap column (GE Healthcare), and eluted using buffer containing 10 mM maltose. MBP:PLS-containing fractions were pooled and concentrated using a centrifugal concentrator (Corning, Spin-X UF 30 kDa) and buffer exchanged by desalting column into a metal-free buffer of 20 mM HEPES (pH 7.0) and 50 mM NaCl in an anaerobic chamber (Belle Technology). Mutants containing thiols were quantified using Ellman’s assay, and MBP:PLS(C6S/C17S), which lacks all thiols, was quantified using the Bradford assay alone. Samples were also analyzed for metal content by ICP–MS to ensure >95% apo-protein.
# All Cu(I) titration experiments were carried out in an anaerobic chamber (Belle Technology) using metal-free CHELEX-treated, degassed buffers. For titration experiments with Cu(I), aqueous CuSO4 stock was quantified in advance by ICP–MS and diluted to working concentrations. The reductant NH2OH was included at a final concentration of 1 mM to maintain Cu(I) in its reduced state. Proteins were diluted in buffer to the final concentration specified in each titration in air-tight quartz cuvettes (Helma), and after addition of probe to the concentration specified, titrated with CuSO4. After each addition, solutions were thoroughly mixed and absorbance spectra recorded using a Lambda 35 UV/Vis spectrophotometer (PerkinElmer). Titration isotherm data were fitted using simulated affinity curves with DynaFit ([Kuzmič, 2009]).
# [4] = test system: pPLS::GUS; assay: pPLS::GUS expression in root tips after hormone treatment; format: in vivo, Arabidopsis; details: 10 μM 2,4-D, root tips
# From the text: Figure S15. The link between auxi n and et hyl ene si gnal l i ng ef f ect s on PLS transcription, and downstream ef f ect s on et hyl ene responses.
# (A) Ant agoni sm between auxi n and et hyl ene on PLS expressi on.
# Auxin posit ively regulates PLS gene transcription, whi l e ACC (ethylene pr ecur sor ) […]
# Lef t upper panel: pPLS::GUS […]
# expr ession in the Arabidopsis root tip under standard gr owt h conditions. Lef t lower panel: pPLS::PLS:GFP expr ession in the Arabidopsis root tip under standard gr owt h conditions.
# Ri ght panel: pPLS::GUS expr ession in root tips treated wi t h 10 μM 2,4-D, showing ect opic […]
# 10 μM 2,4-D plus 10 μm ACC, showing the ant agonism of the inductive eff ect of 2,4-D on PLS::GUS expr ession. Images ar e representative of 10 independently gr own roots. […]
# [5] = biological target: T1, full-length ETR1, recombinant, purified …; assay: MST
molecule,measurement,setting,value
"C2: C-terminal 24 amino acids of Arabidopsis PLS (SISPCYISISYLLVAKLFKLFKIH; UniProt Q8LLV8 13-36, looked up, fragment)",rescue of root growth of pls seedlings,"[1]; hydroponic, 10 days",unable to rescue the mutant
silver ions,rescue of pls mutant phenotype,"[2]; pharmacological inhibition of ethylene signaling, ref Chilley et al., 2006",rescued
same,rescue of pls mutant,"[2]; supply of silver ions, ref Casson et al., 2002",rescued
"N1: N-terminal 22 amino acids of Arabidopsis PLS (MKPRLCFNFRRRSISPCYISIS; UniProt Q8LLV8 1-22, looked up, fragment)",rescue of root growth of pls seedlings,"[1]; hydroponic, 10 days",rescued root growth
same,"difference in rescue effects of PLS(FL) and PLS(N1), t-test P","[1]; 50 nM, n = 25",> 0.1
same,difference in rescue effects of PLS(FL) and PLS(N1),"[1]; 50 nM, n = 25, t-test",did not differ significantly
same,rescue of short primary root length of pls mutant,"[1]; hydroponic, 10 days, 100 nM (Figure 2B) or 50 nM (Figure 2C)",able to rescue the short primary root length
"C1: C-terminal 14 amino acids of Arabidopsis PLS (YLLVAKLFKLFKIH; UniProt Q8LLV8 23-36, looked up, fragment)",rescue of root growth of pls seedlings,"[1]; hydroponic, 10 days",unable to rescue the mutant
"N2: N-terminal 9 amino acids of Arabidopsis PLS (MKPRLCFNF; UniProt Q8LLV8 1-9, looked up, fragment)",rescue of root growth of pls seedlings,"[1]; hydroponic, 10 days",unable to rescue the mutant
"PLS(FL C6S, C17S): mutated Arabidopsis full-length peptide in which both cysteines were replaced with serines (MKPRLSFNFRRRSISPSYISISYLLVAKLFKLFKIH; full-length; UniProt Q8LLV8 1-36, looked up, variant C6S C17S)",withholding of Cu(I) from BCA,[3],does not
same,rescue of pls mutant by double-Cys mutant peptide,"[1]; 100 nM, hydroponic, 10 days (Figure 5A)",non-functional; also recorded: failing to rescue the short primary root phenotype of the pls mutant
"O=C(O)COc1ccc(Cl)cc1Cl [2,4-D]",pPLS::GUS expression,[4],throughout the root
"MKPRLCFNFRRRSISPCYISISYLLVAKLFKLFKIH [synthetic full-length POLARIS (PLS) peptide, PLS(FL)]",Kd,[5],1900 nM
